From ChEMBL document CHEMBL3085714 (J Med Chem, 2013)

Key:
Homo sapiens [1] = species on record: Homo sapiens; experiment: Selectivity for p38alpha MAP kinase (unknown origin) over ZAK (unknown origin)
Homo sapiens [2] = species on record: Homo sapiens; experiment: Selectivity for p38alpha MAP kinase (unknown origin) over TTK (unknown origin)
Homo sapiens [3] = species on record: Homo sapiens; experiment: Selectivity for p38alpha MAP kinase (unknown origin) over TIE2 (unknown origin)
Homo sapiens [4] = species on record: Homo sapiens; experiment: Selectivity for p38alpha MAP kinase (unknown origin) over TGFB-R2 (unknown origin)
Homo sapiens [5] = species on record: Homo sapiens; experiment: Selectivity for p38alpha MAP kinase (unknown origin) over TEC (unknown origin)
Homo sapiens [6] = species on record: Homo sapiens; experiment: Selectivity for p38alpha MAP kinase (unknown origin) over STK25 (unknown origin)
Homo sapiens [7] = species on record: Homo sapiens; experiment: Selectivity for p38alpha MAP kinase (unknown origin) over STK23 (unknown origin)
Homo sapiens [8] = species on record: Homo sapiens; experiment: Selectivity for p38alpha MAP kinase (unknown origin) over SNK (unknown origin)
Homo sapiens [9] = species on record: Homo sapiens; experiment: Selectivity for p38alpha MAP kinase (unknown origin) over SGK3 (unknown origin)
Homo sapiens [10] = species on record: Homo sapiens; experiment: Selectivity for p38alpha MAP kinase (unknown origin) over SGK1 (unknown origin)
Homo sapiens [11] = species on record: Homo sapiens; experiment: Selectivity for p38alpha MAP kinase (unknown origin) over RPS6KA1 (unknown origin)
Homo sapiens [12] = species on record: Homo sapiens; experiment: Selectivity for p38alpha MAP kinase (unknown origin) over ROS (unknown origin)
Homo sapiens [13] = species on record: Homo sapiens; experiment: Selectivity for p38alpha MAP kinase (unknown origin) over RON (unknown origin)
Homo sapiens [14] = species on record: Homo sapiens; experiment: Selectivity for p38alpha MAP kinase (unknown origin) over BMPR1A (unknown origin)
Homo sapiens [15] = species on record: Homo sapiens; experiment: Selectivity for p38alpha MAP kinase (unknown origin) over AXL (unknown origin)
Homo sapiens [16] = species on record: Homo sapiens; experiment: Selectivity for p38alpha MAP kinase (unknown origin) over ABL1 Q252H mutant (unknown origin)
Homo sapiens [17] = species on record: Homo sapiens; experiment: Selectivity for p38alpha MAP kinase (unknown origin) over ROCK2 (unknown origin)
Homo sapiens [18] = species on record: Homo sapiens; experiment: Selectivity for p38alpha MAP kinase (unknown origin) over RET V804L mutant (unknown origin)
Homo sapiens [19] = species on record: Homo sapiens; experiment: Selectivity for p38alpha MAP kinase (unknown origin) over PYK2 (unknown origin)
Homo sapiens [20] = species on record: Homo sapiens; experiment: Selectivity for p38alpha MAP kinase (unknown origin) over PKC-zeta (unknown origin)
Homo sapiens [21] = species on record: Homo sapiens; experiment: Selectivity for p38alpha MAP kinase (unknown origin) over PKC-nu (unknown origin)
Homo sapiens [22] = species on record: Homo sapiens; experiment: Selectivity for p38alpha MAP kinase (unknown origin) over PKC-iota (unknown origin)
Homo sapiens [23] = species on record: Homo sapiens; experiment: Selectivity for p38alpha MAP kinase (unknown origin) over PKC-beta2 (unknown origin)
Homo sapiens [24] = species on record: Homo sapiens; experiment: Selectivity for p38alpha MAP kinase (unknown origin) over PIM1 (unknown origin)
Homo sapiens [25] = species on record: Homo sapiens; experiment: Selectivity for p38alpha MAP kinase (unknown origin) over PDGFR-beta (unknown origin)
Homo sapiens [26] = species on record: Homo sapiens; experiment: Selectivity for p38alpha MAP kinase (unknown origin) over PDGFR-alpha V561D mutant (unknown origin)
Homo sapiens [27] = species on record: Homo sapiens; experiment: Selectivity for p38alpha MAP kinase (unknown origin) over PCTAIRE1 (unknown origin)
Homo sapiens [28] = species on record: Homo sapiens; experiment: Selectivity for p38alpha MAP kinase (unknown origin) over NEK4 (unknown origin)
Homo sapiens [29] = species on record: Homo sapiens; experiment: Selectivity for p38alpha MAP kinase (unknown origin) over MST2 (unknown origin)
[30] = molecular target: Mitogen-activated protein kinase 14 (Homo sapiens, UniProt Q16539); experiment: Competitive inhibition of p38alpha MAP kinase (unknown origin) in presence of 300 uM ATP
[31] = molecular target: Calcium/calmodulin-dependent protein kinase type II subunit delta (Homo sapiens) (UniProt Q13557); experiment: Inhibition of CAMK2D (unknown origin) at 10 uM
Homo sapiens [32] = species on record: Homo sapiens; experiment: Selectivity for p38alpha MAP kinase (unknown origin) over MET Y1230H mutant (unknown origin)
Homo sapiens [33] = species on record: Homo sapiens; experiment: Selectivity for p38alpha MAP kinase (unknown origin) over wild type MET (unknown origin)
Homo sapiens [34] = species on record: Homo sapiens; experiment: Selectivity for p38alpha MAP kinase (unknown origin) over MEK1 (unknown origin)
Homo sapiens [35] = species on record: Homo sapiens; experiment: Selectivity for p38alpha MAP kinase (unknown origin) over LCK (unknown origin)
Homo sapiens [36] = species on record: Homo sapiens; experiment: Selectivity for p38alpha MAP kinase (unknown origin) over JAK3 (unknown origin)
Homo sapiens [37] = species on record: Homo sapiens; experiment: Selectivity for p38alpha MAP kinase (unknown origin) over HCK (unknown origin)
Homo sapiens [38] = species on record: Homo sapiens; experiment: Selectivity for p38alpha MAP kinase (unknown origin) over wild type FLT3 (unknown origin)
Homo sapiens [39] = species on record: Homo sapiens; experiment: Selectivity for p38alpha MAP kinase (unknown origin) over wild type FGFR1 (unknown origin)
Homo sapiens [40] = species on record: Homo sapiens; experiment: Selectivity for p38alpha MAP kinase (unknown origin) over FER (unknown origin)
Homo sapiens [41] = species on record: Homo sapiens; experiment: Selectivity for p38alpha MAP kinase (unknown origin) over EPHB1 (unknown origin)
Homo sapiens [42] = species on record: Homo sapiens; experiment: Selectivity for p38alpha MAP kinase (unknown origin) over EPHA8 (unknown origin)
Homo sapiens [43] = species on record: Homo sapiens; experiment: Selectivity for p38alpha MAP kinase (unknown origin) over EPHA3 (unknown origin)
Homo sapiens [44] = species on record: Homo sapiens; experiment: Selectivity for p38alpha MAP kinase (unknown origin) over EGFR T790M mutant (unknown origin)
Homo sapiens [45] = species on record: Homo sapiens; experiment: Selectivity for p38alpha MAP kinase (unknown origin) over EGFR G719S mutant (unknown origin)
Homo sapiens [46] = species on record: Homo sapiens; experiment: Selectivity for p38alpha MAP kinase (unknown origin) over DNA-PK (unknown origin)

Calcium/calmodulin-dependent protein kinase type II subunit delta (Homo sapiens), sequence (Q13557 whole entry): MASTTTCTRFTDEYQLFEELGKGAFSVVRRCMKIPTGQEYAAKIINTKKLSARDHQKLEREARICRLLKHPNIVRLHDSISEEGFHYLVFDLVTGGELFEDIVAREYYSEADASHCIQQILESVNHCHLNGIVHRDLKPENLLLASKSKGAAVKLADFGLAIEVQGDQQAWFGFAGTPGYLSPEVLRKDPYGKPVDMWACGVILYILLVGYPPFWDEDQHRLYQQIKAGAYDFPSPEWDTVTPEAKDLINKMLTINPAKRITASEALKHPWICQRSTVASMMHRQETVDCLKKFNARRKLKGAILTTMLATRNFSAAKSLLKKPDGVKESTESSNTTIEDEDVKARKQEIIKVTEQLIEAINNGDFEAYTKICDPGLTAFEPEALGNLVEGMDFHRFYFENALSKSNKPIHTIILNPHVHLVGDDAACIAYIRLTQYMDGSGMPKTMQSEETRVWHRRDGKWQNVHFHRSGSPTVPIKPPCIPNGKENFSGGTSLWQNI
Mitogen-activated protein kinase 14, sequence (Q16539 whole entry): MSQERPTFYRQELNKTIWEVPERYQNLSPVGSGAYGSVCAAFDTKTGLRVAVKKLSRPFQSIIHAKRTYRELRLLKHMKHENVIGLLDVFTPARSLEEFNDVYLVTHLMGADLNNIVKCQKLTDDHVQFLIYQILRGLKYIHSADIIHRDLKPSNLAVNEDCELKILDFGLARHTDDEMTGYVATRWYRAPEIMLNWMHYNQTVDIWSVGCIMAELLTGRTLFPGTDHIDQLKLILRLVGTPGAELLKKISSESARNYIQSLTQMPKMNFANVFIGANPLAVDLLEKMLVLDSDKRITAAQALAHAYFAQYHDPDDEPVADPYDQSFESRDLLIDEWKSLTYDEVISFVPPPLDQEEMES

Cc1cc(F)c(NC(=O)c2ccsc2)cc1Nc1ccc2c(c1)OCc1ccc(OC[C@H](O)CO)cc1C2=O
Selectivity ratio (Homo sapiens [1]): > 1000
Selectivity ratio (Homo sapiens [2]): > 1000
Selectivity ratio (Homo sapiens [3]): > 1000
Selectivity ratio (Homo sapiens [4]): > 1000
Selectivity ratio (Homo sapiens [5]): > 1000
Selectivity ratio (Homo sapiens [6]): > 1000
Selectivity ratio (Homo sapiens [7]): > 1000
Selectivity ratio (Homo sapiens [8]): > 1000
Selectivity ratio (Homo sapiens [9]): > 1000
Selectivity ratio (Homo sapiens [10]): > 1000
Selectivity ratio (Homo sapiens [11]): > 1000
Selectivity ratio (Homo sapiens [12]): > 1000
Selectivity ratio (Homo sapiens [13]): > 1000
Selectivity ratio (Homo sapiens [14]): > 1000
Selectivity ratio (Homo sapiens [15]): > 1000
Selectivity ratio (Homo sapiens [16]): > 1000
Selectivity ratio (Homo sapiens [17]): > 1000
Selectivity ratio (Homo sapiens [18]): > 1000
Selectivity ratio (Homo sapiens [19]): > 1000
Selectivity ratio (Homo sapiens [20]): > 1000
Selectivity ratio (Homo sapiens [21]): > 1000
Selectivity ratio (Homo sapiens [22]): > 1000
Selectivity ratio (Homo sapiens [23]): > 1000
Selectivity ratio (Homo sapiens [24]): > 1000
Selectivity ratio (Homo sapiens [25]): > 1000
Selectivity ratio (Homo sapiens [26]): > 1000
Selectivity ratio (Homo sapiens [27]): > 1000
Selectivity ratio (Homo sapiens [28]): > 1000
Selectivity ratio (Homo sapiens [29]): > 1000
IC50 [30]: 4 nM
inhibition [31]: > 50%
Selectivity ratio (Homo sapiens [32]): > 1000
Selectivity ratio (Homo sapiens [33]): > 1000
Selectivity ratio (Homo sapiens [34]): > 1000
Selectivity ratio (Homo sapiens [35]): > 1000
Selectivity ratio (Homo sapiens [36]): > 1000
Selectivity ratio (Homo sapiens [37]): > 1000
Selectivity ratio (Homo sapiens [38]): > 1000
Selectivity ratio (Homo sapiens [39]): > 1000
Selectivity ratio (Homo sapiens [40]): > 1000
Selectivity ratio (Homo sapiens [41]): > 1000
Selectivity ratio (Homo sapiens [42]): > 1000
Selectivity ratio (Homo sapiens [43]): > 1000
Selectivity ratio (Homo sapiens [44]): > 1000
Selectivity ratio (Homo sapiens [45]): > 1000
Selectivity ratio (Homo sapiens [46]): > 1000
